Tested on: Plasmodium berghei
Assay: In vivo antimalarial activity against Plasmodium berghei infected mouse model assessed as survival time at 8 mg/kg, po in presence of Mefloquine hydrochloride

Work on `CO[C@H]1O[C@@H]2O[C@@]3(C)CC[C@H]4[C@H](C)CC[C@@H]([C@H]1C)[C@@]24OO3` yielded a survival time of 23 days.

Reference: ChEMBL document CHEMBL5257025, “Artemisinin-Derived Dimers: Potent Antimalarial and Anticancer Agents” (J Med Chem, 2016)
